# Source: patent publication US10792295B2, “Compositions for management of Helicobacter pylori infections” (SAMI LABS LIMITED, priority 2017, dated 2020)
# Tests used:
# Format in all cases: cell-based
# [1] = test system: Helicobacter pylori ATCC 700392; assay: Well diffusion method, zones of inhibition; conditions: ATCC700392, 72 h, H. pylori ATCC 700392, 1000 μg/well, 3 days, 37° C., microaerobic
# Protocol: (§1) Helicobacter pylori ATCC 43504 and ATCC 700392 were purchased from the American Type Culture Collection (ATCC, Manassas, Va., USA). Cultures were grown in brain heart infusion (BHI) agar/broth (HiMedia, Mumbai India) supplemented with 7% (v/v) sheep blood or fetal bovine serum and incubated at 37° C. under microaerobic conditions (Na, 85%; 02, 5%; CO2, 10%) using an anaerobic chamber (Imset, Mumbai, India). Bacillus coagulans MTCC 5856 was grown in MRS media by adding inoculum (5% v/v) to the MRS broth and incubated at 37° C. for 24 h. After 24 h, the culture was centrifuged (5,000×g) to remove the cells and the supernatant was collected, concentrated 10-fold by lyophilization and filter sterilized through a 0.22 micron filter (Millipore, India). The cell-free supernatant was tested against H. pylori and 10-fold concentrated supernatant was also tested against H. pylori ATCC 43504 and ATCC 700392. Similar to above, BHI agar plates supplemented with 7% (v/v) fetal bovine serum were prepared containing a strain of Helicobacter pylori ATCC 43504 or ATCC 700392. Further, well was made in the BHI agar plates containing Helicobacter pylori ATCC 43504 or ATCC 700392. […] After incubation, the antibacterial activities were evaluated by measuring a diameter of the inhibition zone. […]
# [2] = test system: Helicobacter pylori ATCC 43504; assay: Well diffusion method, zones of inhibition; conditions: ATCC43504, 72 h, H. pylori ATCC 43504, 1000 μg/well, 3 days, 37° C., microaerobic
# Protocol: as §1
# [3] = test system: Helicobacter pylori ATCC 700392; assay: Minimum inhibitory concentration (MIC) determination, broth microdilution; conditions: H. pylori ATCC 700392; 72 h, BHI broth with 7% FBS, no turbidity
# Protocol: (§2) Helicobacter pylori ATCC 43504 and ATCC 700392 were purchased from the American Type Culture Collection (ATCC, Manassas, Va., USA). Cultures were grown in brain heart infusion (BHI) agar/broth (HiMedia, Mumbai India) supplemented with 7% (v/v) sheep blood or fetal bovine serum and incubated at 37° C. under microaerobic conditions (Na, 85%; 02, 5%; CO2, 10%) using an anaerobic chamber (Imset, Mumbai, India). Bacillus coagulans MTCC 5856 was grown in MRS media by adding inoculum (5% v/v) to the MRS broth and incubated at 37° C. for 24 h. After 24 h, the culture was centrifuged (5,000×g) to remove the cells and the supernatant was collected, concentrated 10-fold by lyophilization and filter sterilized through a 0.22 micron filter (Millipore, India). The cell-free supernatant was tested against H. pylori and 10-fold concentrated supernatant was also tested against H. pylori ATCC 43504 and ATCC 700392. The MICs of curcumin, β-glucogallin and mucic acid gallates extract and Piperine extract were determined as per the guidelines of Clinical and Laboratory Standards Institute (formerly the National Committee for Clinical Laboratory Standards). […] After incubation, plates were visually read for the absence or presence of turbidity. The minimum concentration of the compound concentration showing no turbidity was recorded as MIC.
# [4] = test system: Helicobacter pylori ATCC 43504; assay: as above; conditions: H. pylori ATCC 43504; 72 h, BHI broth with 7% FBS, no turbidity
# Protocol: as §2
smiles,measurement,setting,value
COc1cc(/C=C/C(=O)CC(=O)/C=C/c2ccc(O)c(OC)c2)ccc1O [Curcumin],zone of inhibition at 1000 µg/disc,[1],14 ± 1.2 mm
same,zone of inhibition at 1000 µg/disc,[2],13 ± 1.2 mm
same,MIC range,[3],125 to 250 µg/mL
same,MIC range,[4],125 to 250 µg/mL
